For the assay, the target named is T1, RORγt (Homo sapiens, UniProt P51449).
T1 construct: Prepare 4×RORgt-LBD in 1× buffer
T1 sequence (P51449 269-508 limits assumed): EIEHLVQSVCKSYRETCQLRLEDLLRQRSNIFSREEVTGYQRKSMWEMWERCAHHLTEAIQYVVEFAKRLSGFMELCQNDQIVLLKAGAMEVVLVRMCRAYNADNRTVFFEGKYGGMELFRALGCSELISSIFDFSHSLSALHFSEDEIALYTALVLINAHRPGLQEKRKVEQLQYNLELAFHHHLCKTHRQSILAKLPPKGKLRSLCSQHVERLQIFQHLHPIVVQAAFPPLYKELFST
The assay can be described thus: Fluorescence resonance energy transfer (FRET) assay of inhibitory activity on RORγt. The class given is biochemical. Particulars: RORgt-LBD GST with SRC peptide. As to the method:
Fluorescence resonance energy transfer (FRET) experiment was performed to assay the inhibitory activity of the compound of the present invention on RORγt.
1) Preparation of DMSO stock solutions of the compounds: All compounds were dissolved in DMSO to prepare 10 mM stock solutions.
2) Compound storage: After the compound was dissolved in DMSO, the solution can be stored in a desiccator at room temperature for three months. For long-term storage, the solution should be put in a −20° C. refrigerator.
3) Preparation of working solution: • a) Positive control compound AZD0284: Starting from 500 µM, the solution was diluted serially by 3-folds with DMSO to obtain a 10-concentration gradient, each concentration with 3 replicate wells. 2 wells were pipetted. The gradiently diluted compound was diluted in a reaction buffer to obtain a 4× working solution (starting from 40 μM, diluted gradiently by 3-folds) of the positive control compound. • b) Compounds to be tested: Starting from 500 μM, the solution was diluted serially by 3-folds with DMSO to obtain a 10-concentration gradient, each concentration with 3 replicate wells. 2 wells were pipetted. The gradiently diluted compound was diluted in a reaction buffer to obtain a 4× working solution ([…], diluted gradiently by 3-folds) of the compounds to be tested. • c) Prepare a 4× negative control (8% DMSO). • d) Centrifuge the plate at 1000 rpm for 1 min.
1) Prepare 4× serially diluted compounds in 1× buffer.
2) Add 5 μl of the 4× serially diluted compound (prepared in step 1) to a 384 assay plate (784075, Greiner).
3) Prepare 4×RORgt-LBD in 1× buffer.
4) Add 5 μl of the 4×RORgt-LBD (prepared in step 3) to the 384 assay plate (prepared in step 2).
5) Incubate the assay plate for 15 min at room temperature, protected from light.
6) Prepare a 2× mixture of SRC, anti-GST Eu and streptavidin-d2 in 1× […].
7) Add 10 μl of the 2× mixture (prepared in step 6) to the 384 assay plate (prepared in step 4).
8) Centrifuge the 384 assay plates at 1000 g for 1 min.
9) Incubate for 3 h at room temperature, protected from light.
10) Read the plate at wavelengths of 665 nm and 615 nm on an Envision 2104 plate reader.
Relative ratio (RR): Calculate the relative ratio (response value at 665 nm/response value at 615 nm-response value in blank background) of each well.
Inhibition rate %=[1−(fluorescence detection value of the compound−fluorescence detection average of the positive compound)/(fluorescence detection average of the negative control−fluorescence detection average of the positive compound)]×100
Calculate the IC50 and dose-response curve of the compound: The IC50 and dose-response curve of the compound were obtained via Graphpad 8.0 by calculating the inhibition rate of the compound and the log value of the compound concentration.

Each structure is given as a SMILES string.

The molecule `CNS(=O)(=O)c1ccc(CC(=O)Nc2ccc(C(=O)C3(c4ccc(F)cc4)CC(F)(F)C3)nc2)cc1` [Compound I-75, N-(6-(3,3-difluoro-1-(4-fluorophenyl)cyclobutane-1-carbonyl)pyridin-3-yl)-2-(4-(N-methylsulfamoyl)phenyl)acetamide] registered an IC50 of 1 to 10 nM.

`CCS(=O)(=O)c1ccc(CC(=O)Nc2ccc(C(=O)C(C)(C)c3cccc(C(F)(F)F)n3)nc2)cc1` [Compound I-76] showed a half-inhibitory concentration (IC50) of 1 to 10 nM.

A word on the IC50: it is the point on the concentration scale where inhibition reaches its midpoint. The low end stands for inhibition by little substance, the high end for a need for much substance.

(Values after patent US20240317686A1, “RORyT MODULATOR, AND PREPARATION METHOD THEREFOR AND APPLICATION THEREOF” (SHANGHAI PHARMACEUTICALS HOLDING CO., LTD., priority 2020, published 2024).)
